Where “and” joins values, the source holds several entries; their conditions need not be identical. Equal entries are not always repeated.
Legend:
COL1A1 mRNA expression = COL1A1 mRNA expression in NHDFs by qRT-PCR; assay type: cell-based, human; details: 48 h
Procedure: (§1) A former established cell culture model was utilized to investigate the effect of putative XT-I inhibitors on NHDFs. The inhibition studies were carried out with final inhibitor concentrations of 0.5, 1.0, 2.0 or 4.0 μM diluted in fully supplemented DMEM. In brief, unless otherwise stated, NHDFs were cultivated with a low density of 50 cells per mm^2 on a hard tissue culture substrate (100 × 20 mm dish) in fully supplemented DMEM with or without additional TGF-β1 (5 μg/L) for 24 h, promoting their transdifferentiation into proto-myofibroblasts. Thereafter, cells were treated with celastrol or amphotericin B in the presence or absence of TGF-β1 (5 μg/L) for an additional 48 h. Negative controls treated with solvent only were included for every sampling time. The final DMSO content of 0.04% (v/v) was kept constant in all inhibition experiments.
(§2) The RNA extraction from cell lysates and cDNA synthesis for mRNA and miRNA expression analysis were performed as described previously.
(§3) Quantitative real-time polymerase chain reaction (qRT-PCR) analysis using a LightCycler 480 Instrument II system (Roche, Basel, Swiss) was performed as previously described. […] The geometric mean of the expression levels of the housekeeping genes SDHA, RPL13A and B2M were calculated for expression normalization. The relative target gene mRNA expressions were determined by the ΔΔCT method considering the PCR efficiency. […]

fibroblasts = details: in vitro, osteoblasts and fibroblasts; cited from earlier work
TGFB1 mRNA expression = TGFB1 mRNA expression in NHDFs by qRT-PCR; assay type: cell-based, human; details: 2 μM in the presence of TGF-β1 (5 μg/L), 48 h
Procedure: as §1, §2, §3

SMAD7 mRNA expression = SMAD7 mRNA expression in NHDFs by qRT-PCR; assay type: cell-based, human; details: 2 μM in the presence of TGF-β1 (5 μg/L), 48 h
Procedure: as §1, with “experiments. […]” for “experiments.”
as §3

In the case of C[C@@H]1[C@H](O)[C@@H](C)/C=C/C=C/C=C/C=C/C=C/C=C/C=C/[C@H](O[C@@H]2O[C@H](C)[C@@H](O)[C@H](N)[C@@H]2O)C[C@@H]2O[C@](O)(C[C@@H](O)C[C@@H](O)[C@H](O)CC[C@@H](O)C[C@@H](O)CC(=O)O[C@H]1C)C[C@H](O)[C@H]2C(=O)O [Compound 17, Amphotericin B], the “TGF-β1-mediated COL1A1 mRNA expression relative to TGF-β1 only” value (COL1A1 mRNA expression; 2.0 μM with TGF-β1 (5 μg/L)) is listed as 0.8 ± 0.06 fold, the “COL1A1 mRNA expression compared to controls treated with DMSO” value (COL1A1 mRNA expression; amphotericin B treatment, not statistically significant (p = 0.2)) is listed as 0.7 ± 0.1 fold and the “concentration causing sublethal cytotoxicity” value (fibroblasts) is listed as 5000 ng/mL and 10000 ng/mL. The “concentration lethal to fibroblasts” value (fibroblasts) was 100000 ng/mL, the “TGFB1 mRNA expression relative to TGF-β1 only” value (TGFB1 mRNA expression) was 0.8 ± 0.04 fold and the “SMAD7 mRNA expression relative to TGF-β1 only” value (SMAD7 mRNA expression) was 1.3 ± 0.1 fold.

— paper PMC7589200, “Identification of Putative Non-Substrate-Based XT-I Inhibitors by Natural Product Library Screening” (Biomolecules, 2020)
